Results reported in ChEMBL document CHEMBL1131904, “Peptidic immunosuppressants from the fungus Trichoderma polysporum” (Bioorg Med Chem Lett, 1999).
Numbered stars: 1 amine (or outer) side, 2 acyl side, 3 side chain; on linkers, the order of the positions; unused ones are H or OH. Square brackets hold non-standard residues; d marks the D form. Peptide text beside a SMILES is read from it. * marks the point of attachment. ξ: configuration not given here. X1 = CCC(=O)C[C@@H](O)C[C@@H](C)C[C@H](N[*:1])C(=O)[*:2]; Alaψ(CH2NMeCH2CH2OH) = C[C@@H](CN(C)CCO)N*; Decanoyl(2R-Me) = CCCCCCCC[C@@H](C)C(=O)*; X2 = CCCCCCC[C@H](O)[C@H](C)C(=O)*; Aib = CC(C)(N)C(=O)O; ξA = CC(N)C(=O)O

Key:
Mus musculus [1] = organism: Mus musculus; assay: Inhibitory activity against the production of interleukin 4 (IL-4); format: functional, organism-based
Mus musculus [2] = organism: Mus musculus; assay: Inhibitory activity against the proliferation of lymphocytes in mouse allogenic mixed lymphocyte reaction (MLR).; format: functional, organism-based

Row | Compound | IC50 (Mus musculus [1]) | IC50 (Mus musculus [2])
1 | CCCCCCCC[C@@H](C)C(=O)N1CCC[C@H]1C(=O)N[C@@H](C[C@H](C)C[C@H](O)CC(=O)CC)C(=O)N[C@@H](C)C(=O)NC(C)(C)C(=O)NC(C)(C)C(=O)N[C@H](C(=O)N[C@@H](C)C(=O)NC(C)(C)C(=O)NC(C)C(=O)N[C@@H](C)CN(C)CCO)C(C)C (stereo partly drawn) ({Decanoyl(2R-Me)}-P[X1]A[Aib][Aib]VA[Aib][ξA]-{Alaψ(CH2NMeCH2CH2OH)}) | > 1 µM | 0.0604 µM
2 | CCCCCCCC[C@@H](C)C(=O)N1CCC[C@H]1C(=O)N[C@@H](C[C@H](C)C[C@H](O)CC(=O)CC)C(=O)N[C@@H](C)C(=O)NC(C)(C)C(=O)NC(C)(C)C(=O)N[C@H](C(=O)N[C@@H](C)C(=O)NC(C)(C)C(=O)NC(C)(C)C(=O)N[C@@H](C)CN(C)CCO)C(C)C ({Decanoyl(2R-Me)}-P[X1]A[Aib][Aib]VA[Aib][Aib]-{Alaψ(CH2NMeCH2CH2OH)}) | > 1 µM | 0.0107 µM
3 | CCCCCCCC[C@@H](C)C(=O)N1CCC[C@H]1C(=O)N[C@@H](C[C@H](C)C[C@H](O)CC(=O)CC)C(=O)N[C@@H](C)C(=O)NC(C)(C)C(=O)NC(C)(C)C(=O)N[C@H](C(=O)N[C@@H](C)C(=O)NC(C)(C)C(=O)NC(C)(C)C(=O)N[C@@H](C)CN(C)CCO)[C@@H](C)CC ({Decanoyl(2R-Me)}-P[X1]A[Aib][Aib]IA[Aib][Aib]-{Alaψ(CH2NMeCH2CH2OH)}) | > 1 µM | 0.0052 µM
4 | CCCCCCCC[C@@H](C)C(=O)N1CCC[C@H]1C(=O)N[C@@H](C[C@H](C)C[C@H](O)CC(=O)CC)C(=O)N[C@@H](C)C(=O)NC(C)(C)C(=O)NC(C)(C)C(=O)N[C@H](C(=O)N[C@@H](C)C(=O)NC(C)(C)C(=O)NC(C)C(=O)N[C@@H](C)CN(C)CCO)[C@@H](C)CC (stereo partly drawn) ({Decanoyl(2R-Me)}-P[X1]A[Aib][Aib]IA[Aib][ξA]-{Alaψ(CH2NMeCH2CH2OH)}) | > 1 µM | 0.0205 µM
5 | CCCCCCC[C@H](O)[C@H](C)C(=O)N1CCC[C@H]1C(=O)N[C@@H](C[C@H](C)C[C@H](O)CC(=O)CC)C(=O)N[C@@H](C)C(=O)NC(C)(C)C(=O)NC(C)(C)C(=O)N[C@H](C(=O)N[C@@H](C)C(=O)NC(C)(C)C(=O)NC(C)(C)C(=O)N[C@@H](C)CN(C)CCO)[C@@H](C)CC (X2-P[X1]A[Aib][Aib]IA[Aib][Aib]-{Alaψ(CH2NMeCH2CH2OH)}) | > 1 µM | 0.294 µM
